The assay addresses T1, ALK5 (Homo sapiens, UniProt P36897).
T1 construct: endogenous in cells; host or cells: Hs578T (ATCC HTB-22), inferred as the cells of the reporter assay
T1 sequence (P36897 34-503): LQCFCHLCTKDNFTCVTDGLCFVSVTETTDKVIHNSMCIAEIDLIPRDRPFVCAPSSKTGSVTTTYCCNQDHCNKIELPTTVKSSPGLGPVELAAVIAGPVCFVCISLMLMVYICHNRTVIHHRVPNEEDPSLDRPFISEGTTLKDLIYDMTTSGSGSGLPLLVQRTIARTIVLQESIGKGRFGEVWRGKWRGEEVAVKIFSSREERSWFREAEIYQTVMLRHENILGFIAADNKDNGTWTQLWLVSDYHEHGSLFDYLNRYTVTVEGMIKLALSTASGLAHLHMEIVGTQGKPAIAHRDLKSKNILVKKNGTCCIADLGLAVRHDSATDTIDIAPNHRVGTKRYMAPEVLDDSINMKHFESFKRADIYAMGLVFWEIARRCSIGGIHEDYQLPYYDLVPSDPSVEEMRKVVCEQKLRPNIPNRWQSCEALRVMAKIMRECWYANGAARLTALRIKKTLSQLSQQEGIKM
Briefly: Cell-based luciferase reporter assay for ALK5 activity. The conditions noted are these: (CAGA)-12-luciferase reporter, Smad 2/3-responsive promoter, 2 ng/ml TGF-β1 stimulation for 12 hours; read-out: Relative luciferase activity: IC50 value. The method, then:
Human cancer cell lines Hs578T (ATCC® HTB-22™) cells were grown in DMEM (Dulbecco's modified Eagle's medium) supplemented with 10% fetal bovine serum and 1% mixture of penicillin and streptomycin (Gibco). Cells were maintained at 37° C. in a humidified 5% CO2 atmosphere.
Cell-Based Luciferase Reporter Assay for ALK5 Activity
Cells were seeded at 3×10^4/well in 24-well plates were transiently transfected with 500 ng of (CAGA)-12-luciferase reporter construct and 5 ng of pRL-TK Renilla luciferase vector (Promega, Madison, WI), an internal control for transfection efficiency, using Lipofectamine 3000 reagent (Thermo Fisher Scientific, Waltham, USA). After 24 h transfection, the cells were pre-treated with ALK5 inhibitor in dose-dependent manner. And then, Cells stimulated with 2 ng/ml recombinant TGF-β1 for 12 hours. After the stimulation, the firefly and Renilla luciferase activities were measured by Dual-Luciferase Repoter Assay (Promega).

`Cc1cccc(-c2[nH]c(CNc3cccc(Cl)c3F)nc2-c2ccn3nccc3c2)n1` [Example 1, 3-chloro-2-fluoro-N-((5-(6-methylpyridin-2-yl)-4-(pyrazolo[1,5-a]pyridin-5-yl)-1H-imidazol-2-yl)methyl)aniline]: the IC50 lay within 0.01 to 0.1 µM.
In the case of `Cc1cccc(-c2[nH]c(CNc3ccc(Cl)c(Cl)c3)nc2-c2ccn3nccc3c2)n1` [Example 2, 3,4-dichloro-N-((5-(6-methylpyridin-2-yl)-4-(pyrazolo[1,5-a]pyridin-5-yl)-1H-imidazol-2-yl)methyl)aniline], the IC50 is less than 0.01 µM.
Regarding `Cc1cccc(-c2[nH]c(CNc3ccccc3F)nc2-c2ccn3ncnc3c2)n1` [Example 3, N-((4-([1,2,4]triazolo[1,5-a]pyridin-7-yl)-5-(6-methylpyridin-2-yl)-1H-imidazol-2-yl)methyl)-2-fluoroaniline], the IC50 lay within 0.01 to 0.1 µM.
On to `Cc1cccc(-c2[nH]c(CNc3cccc(Cl)c3F)nc2-c2ccn3ncnc3c2)n1` [Example 4, N-((4-([1,2,4]triazolo[1,5-a]pyridin-7-yl)-5-(6-methylpyridin-2-yl)-1H-imidazol-2-yl)methyl)-3-chloro-2-fluoroaniline], for which the IC50 is less than 0.01 µM.
For `Cc1cccc(-c2[nH]c(CNc3ccc(Cl)c(Cl)c3)nc2-c2ccn3ncnc3c2)n1` [Example 5, N-((4-([1,2,4]triazolo[1,5-a]pyridin-7-yl)-5-(6-methylpyridin-2-yl)-1H-imidazol-2-yl)methyl)-3,4-dichloroaniline], the IC50 was less than 0.01 µM.
With `Cc1cccc(-c2[nH]c(NCc3ccccc3F)nc2-c2ccn3nccc3c2)n1` [Example 6, N-(2-fluorobenzyl)-5-(6-methylpyridin-2-yl)-4-(pyrazolo[1,5-a]pyridine-5-yl)-1H-imidazol-2-amine] the figure was 0.01 to 0.1 µM; with `Cc1cccc(-c2[nH]c(NCc3cccc(F)c3)nc2-c2ccn3nccc3c2)n1` [Example 7, N-(3-fluorobenzyl)-5-(6-methylpyridin-2-yl)-4-(pyrazolo[1,5-a]pyridine-5-yl)-1H-imidazol-2-amine], 0.01 to 0.1 µM.
Turning to `Cc1cccc(-c2[nH]c(NCc3cccc(Cl)c3F)nc2-c2ccn3nccc3c2)n1` [Example 8, N-(3-chloro-2-fluorobenzyl)-5-(6-methylpyridin-2-yl)-4-(pyrazolo[1,5-a]pyridin-5-yl)-1H-imidazol-2-amine], the IC50 was 0.01 to 0.1 µM.
As to `Cc1cccc(-c2[nH]c(NCc3ccc(Cl)cc3F)nc2-c2ccn3nccc3c2)n1` [Example 9, N-(4-chloro-2-fluorobenzyl)-5-(6-methylpyridin-2-yl)-4-(pyrazolo[1,5-a]pyridin-5-yl)-1H-imidazol-2-amine], the IC50 was less than 0.01 µM.
As to `Cc1cccc(-c2[nH]c(NCc3ccc(Cl)c(Cl)c3)nc2-c2ccn3nccc3c2)n1` [Example 10, N-(3,4-dichlorobenzyl)-5-(6-methylpyridin-2-yl)-4-(pyrazolo[1,5-a]pyridin-5-yl)-1H-imidazol-2-amine], the IC50 is 0.01 to 0.1 µM.
In the case of `Cc1cccc(-c2[nH]c(NCc3ccccc3F)nc2-c2ccn3ncnc3c2)n1` [Example 11, 4-([1,2,4]triazolo[1,5-a]pyridin-7-yl)-N-(2-fluorobenzyl)-5-(6-methylpyridin-2-yl)-1H-imidazol-2-amine], the IC50 lay in the range of 0.01 to 0.1 µM.
Regarding `Cc1cccc(-c2[nH]c(NCc3cccc(F)c3)nc2-c2ccn3ncnc3c2)n1` [Example 12, 4-([1,2,4]triazolo[1,5-a]pyridin-7-yl)-N-(3-fluorobenzyl)-5-(6-methylpyridin-2-yl)-1H-imidazol-2ylamine], the IC50 fell in the range of 0.01 to 0.1 µM.
With `Cc1cccc(-c2[nH]c(NCc3cccc(Cl)c3)nc2-c2ccn3ncnc3c2)n1` [Example 13, 4-([1,2,4]triazolo[1,5-a]pyridin-7-yl)-N-(3-chlorobenzyl)-5-(6-methylpyridin-2-yl)-1H-imidazol-2-amine] the figure was 0.01 to 0.1 µM.
Consider `Cc1cccc(-c2[nH]c(NCc3ccc(Cl)cc3)nc2-c2ccn3ncnc3c2)n1` [Example 14, 4-([1,2,4]triazolo[1,5-a]pyridin-7-yl)-N-(4-chlorobenzyl)-5-(6-methylpyridin-2-yl)-1H-imidazol-2-amine], for which the IC50 is less than 0.01 µM.
In the case of `Cc1cccc(-c2[nH]c(NCc3cccc(F)c3F)nc2-c2ccn3ncnc3c2)n1` [Example 15, 4-([1,2,4]triazolo[1,5-a]pyridin-7-yl)-N-(2,3-difluorobenzyl)-5-(6-methylpyridin-2-yl)-1-imidazol-2-ylamine], the IC50 is 0.01 to 0.1 µM.
On to `Cc1cccc(-c2[nH]c(NCc3c(F)cccc3F)nc2-c2ccn3ncnc3c2)n1` [Example 16, 4-([1,2,4]triazolo[1,5-a]pyridin-7-yl)-N-(2,6-difluorobenzyl)-5-(6-methylpyridin-2-yl)-1H-imidazol-2-amine], for which the IC50 was in the range of 0.01 to 0.1 µM.
With `Cc1cccc(-c2[nH]c(NCc3ccc(Cl)cc3F)nc2-c2ccn3ncnc3c2)n1` [Example 17, 4-([1,2,4]triazolo[1,5-a]pyridin-7-yl)-N-(4-chloro-2-fluorobenzyl)-5-(6-methylpyridin-2-yl)-1H-imidazol-2-amine] the figure was 0.01 to 0.1 µM; with `Cc1cccc(-c2[nH]c(NCc3cccc(Cl)c3F)nc2-c2ccn3ncnc3c2)n1` [Example 18, 4-([1,2,4]triazolo[1,5-a]pyridin-7-yl)-N-(3-chloro-2-fluorobenzyl)-5-(6-methylpyridin-2-yl)-1H-imidazol-2-amine], less than 0.01 µM; with `Cc1cccc(-c2[nH]c(NCc3cc(Cl)ccc3F)nc2-c2ccn3ncnc3c2)n1` [Example 19, 4-([1,2,4]triazolo[1,5-a]pyridin-7-yl)-N-(5-chloro-2-fluorobenzyl)-5-(6-methylpyridin-2-yl)-1H-imidazol-2-amine], 0.01 to 0.1 µM.
For `Cc1cccc(-c2[nH]c(NCc3ccc(Cl)c(Cl)c3)nc2-c2ccn3ncnc3c2)n1` [Example 20, 4-([1,2,4]triazolo[1,5-a]pyridin-7-yl)-N-(3,4-dichlorobenzyl)-5-(6-methylpyridin-2-yl)-1H-imidazol-2-amine], the IC50 was less than 0.01 µM.
As to `Cc1cccc(-c2[nH]c(NCc3ccc(Cl)cc3Cl)nc2-c2ccn3ncnc3c2)n1` [Example 21, 4-([1,2,4]triazolo[1,5-a]pyridin-7-yl)-N-(2,4-dichlorobenzyl)-5-(6-methylpyridin-2-yl)-1H-imidazol-2-amine], the IC50 lay in the range of 0.01 to 0.1 µM.
On to `COc1cccc(CNc2nc(-c3ccn4ncnc4c3)c(-c3cccc(C)n3)[nH]2)c1F` [Example 22, 4-([1,2,4]triazolo[1,5-a]pyridin-7-yl)-N-(2-fluoro-3-methoxybenzyl)-5-(6-methylpyridin-2-yl)-1H-imidazol-2-amine], for which the IC50 was in the range of 0.01 to 0.1 µM.
For `COc1ccc(CNc2nc(-c3ccn4ncnc4c3)c(-c3cccc(C)n3)[nH]2)c(F)c1` [Example 23, 4-([1,2,4]triazolo[1,5-a]pyridin-7-yl)-N-(2-fluoro-4-methoxybenzyl)-5-(6-methylpyridin-2-yl)-1H-imidazol-2-amine], the IC50 is 0.01 to 0.1 µM.
With `CNC(=O)c1cccc(CNc2nc(-c3ccn4ncnc4c3)c(-c3cccc(C)n3)[nH]2)c1` [Example 24, 3-((4-([1,2,4]triazolo[1,5-a]pyridin-7-yl)-5-(6-methylpyridin-2-yl)-1H-imidazol-2ylamino)methyl)-N-methylbenzamide] the figure was more than 0.1 µM; with `CNC(=O)c1ccc(CNc2nc(-c3ccn4ncnc4c3)c(-c3cccc(C)n3)[nH]2)cc1` [Example 25, 4-((4-([1,2,4]triazolo[1,5-a]pyridin-7-yl)-5-(6-methylpyridin-2-yl)-1H-imidazol-2-ylamino)methyl)-N-methylbenzamide], more than 0.1 µM; with `Cc1cccc(-c2[nH]c(NC(=O)c3ccccc3F)nc2-c2ccn3ncnc3c2)n1` [Example 26, N-(4-([1,2,4]triazolo[1,5-a]pyridin-7-yl)-5-(6-methylpyridin-2-yl)-1H-imidazol-2-yl)-2-fluorobenzamide], 0.01 to 0.1 µM.
As to `Cc1cccc(-c2[nH]c(NC(C)c3ccccc3F)nc2-c2ccn3ncnc3c2)n1` (stereo not drawn) [Example 27, 4-([1,2,4]tiazolo[1,5-a]pyridin-7-yl)-N-(1-(2-fluorophenyl)ethyl)-5-(6-methylpyridin-2-yl)-1H-imidazol-2-amine], the IC50 is 0.01 to 0.1 µM.

The values are drawn from US11932639B2, “Fused ring heteroaryl compounds as ALK4/5 inhibitors” (BiSiChem Co., Ltd., priority 2019, dated 2024).
